Test systems include EKVX NSCLC; HOP-92 NSCLC; SNB-19 CNS; A549 NSCLC; HOP-62 NSCLC; A498 renal; IGROV1 ovarian; NCI-H522 lung; CCRF-CEM leukemia; MDA-MB-231 breast.
Holding throughout (assay): growth of human tumour cells (NCI), 48 h

Values joined by “and” are separate entries in the source; they are usually repeats but may differ in a detail not shown here. Equal entries are not always repeated.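 Exposure lasted 48 hours, with cells grown in 96-well plates and compounds tested at five concentrations. Abbreviation: GI50, concentration required for 50% inhibition of growth. TGI is the concentration that stops growth completely.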 Where only a bound is given, the exact number is not on record here.

`COc1ccc(-c2cc(C(=O)Nc3cccc(C(F)(F)F)c3)[nH]c(=S)n2)cc1`: the TGI in the assay with EKVX NSCLC, in the assay with HOP-92 NSCLC, with SNB-19 CNS, in the assay with A549 NSCLC, in the assay on HOP-62 NSCLC and in the assay with A498 renal was more than 100 µM throughout. In addition, the TGI with IGROV1 ovarian, in the assay on NCI-H522 lung and with CCRF-CEM leukemia was more than 100 µM in each case.

Take `COc1ccc(CNc2cc(OC)cc(OC)c2)cc1`: the TGI in the assay with EKVX NSCLC, with HOP-92 NSCLC, in the assay with SNB-19 CNS, in the assay with A549 NSCLC, in the assay on HOP-62 NSCLC and with A498 renal was more than 100 µM throughout. In addition, the TGI with IGROV1 ovarian, with NCI-H522 lung and in the assay with CCRF-CEM leukemia was more than 100 µM throughout. For the same molecule, the GI50 in the assay with A498 renal is > 100 µM and 14.7 µM; in the assay with CCRF-CEM leukemia, 78.7 µM and 28.6 µM.

Take `O=CC1=CCCC2(C1)OCCO2`: the TGI in the assay with EKVX NSCLC, in the assay with HOP-92 NSCLC, in the assay on SNB-19 CNS, in the assay with A549 NSCLC, in the assay on HOP-62 NSCLC and with A498 renal was more than 100 µM throughout. The TGI in the assay on IGROV1 ovarian, in the assay on NCI-H522 lung and in the assay with CCRF-CEM leukemia was more than 100 µM in each case.

Turning to `CC(=O)O[C@]1(C(C)=O)CC[C@H]2[C@@H]3C[C@H](C)C4=CC(=O)C=C[C@]4(C)[C@@]3(F)[C@@H](O)C[C@@]21C`, the TGI in the assay with EKVX NSCLC, with HOP-92 NSCLC, in the assay with SNB-19 CNS, in the assay with A549 NSCLC, in the assay with HOP-62 NSCLC and in the assay on IGROV1 ovarian was more than 100 µM throughout. In addition, the TGI in the assay on NCI-H522 lung and with CCRF-CEM leukemia was more than 100 µM throughout.

As to `CC(C)(C)c1nc2c(o1)C(=Nc1ccccc1)c1ccccc1C2=O`, the TGI with EKVX NSCLC worked out at 41 µM; in the assay on HOP-92 NSCLC, 23.8 µM; in the assay on SNB-19 CNS, 27.5 µM; in the assay on A549 NSCLC, 23.5 µM; with HOP-62 NSCLC, 31 µM; in the assay with A498 renal it was 36.4 µM. Also, the results for the TGI in the assay on IGROV1 ovarian, in the assay with NCI-H522 lung and in the assay with CCRF-CEM leukemia were 33.6 µM, 10.2 µM and more than 100 µM, respectively.

Turning to `N=C(N)/N=C(/C=C/c1ccccc1)CC1OC(=O)c2ccccc21` (stereo unspecified), the TGI in the assay on EKVX NSCLC, in the assay with SNB-19 CNS, in the assay on A549 NSCLC, in the assay on HOP-62 NSCLC, with A498 renal and with IGROV1 ovarian was more than 100 µM each time. The TGI with NCI-H522 lung and in the assay on CCRF-CEM leukemia was more than 100 µM each time.

`CCOC(C)OCC#CCCBr` (stereo unspecified): the TGI in the assay on EKVX NSCLC, in the assay on SNB-19 CNS, in the assay on A549 NSCLC, in the assay on HOP-62 NSCLC, in the assay with IGROV1 ovarian and in the assay with CCRF-CEM leukemia was more than 100 µM each time.

In the case of `O=C1c2ccn(CCCCN3CCOCC3)c2C(=O)c2c1c(O)c1ccccc1c2O`, the GI50 in the assay on SNB-19 CNS is 19.6 µM; in the assay with MDA-MB-231 breast it was 12.7 µM; in the assay with A549 NSCLC, 14.4 µM; in the assay with HOP-62 NSCLC it was 14.7 µM; in the assay with A498 renal, 19.3 µM; in the assay on IGROV1 ovarian, 20.5 µM. The GI50 was 40.3 µM in the assay on NCI-H522 lung and 2.75 µM in the assay with CCRF-CEM leukemia. Besides, the TGI in the assay with SNB-19 CNS is 60.4 µM; with MDA-MB-231 breast, 32.4 µM; in the assay on A549 NSCLC, 38.7 µM; with HOP-62 NSCLC, 34.5 µM; with A498 renal it was more than 100 µM; in the assay on IGROV1 ovarian it was more than 100 µM. For the same molecule, the TGI in the assay on NCI-H522 lung and in the assay with CCRF-CEM leukemia was more than 100 µM throughout.

As for `OCC(O)CC[CH2][Sn]([c]1ccccc1)([c]1ccccc1)[c]1ccccc1` (stereo unspecified), the GI50 was 16.5 µM in the assay on EKVX NSCLC; 10.9 µM in the assay on HOP-92 NSCLC; 19.4 µM in the assay with SNB-19 CNS; 10.7 µM in the assay on A549 NSCLC; 18.4 µM in the assay on HOP-62 NSCLC; 16.3 µM with IGROV1 ovarian. In addition, the GI50 in the assay on NCI-H522 lung was 4.64 µM; in the assay on CCRF-CEM leukemia it was 13.7 µM. Further, the TGI in the assay on EKVX NSCLC turned out to be 31.7 µM; in the assay on HOP-92 NSCLC, 24 µM; in the assay on SNB-19 CNS, 33.7 µM; in the assay with A549 NSCLC, 22.6 µM; in the assay on HOP-62 NSCLC, 39.1 µM; with IGROV1 ovarian, 33.7 µM. Further, the TGI in the assay with NCI-H522 lung turned out to be 13.7 µM; in the assay on CCRF-CEM leukemia it was 41.6 µM.

As to `COc1nc(OC)c2c(=O)oc(-c3ccccc3)cc2n1`, the TGI with EKVX NSCLC, in the assay with HOP-92 NSCLC, in the assay with SNB-19 CNS, in the assay with A549 NSCLC, in the assay with IGROV1 ovarian and in the assay with NCI-H522 lung was more than 100 µM each time.

In the case of `O=c1cc2n(c(=O)[nH]1)C1OC(C(O)C1O)[C@@H]2CCO` (stereo partly specified), the TGI with EKVX NSCLC, in the assay with HOP-92 NSCLC, in the assay with SNB-19 CNS, in the assay with A549 NSCLC, in the assay with HOP-62 NSCLC and in the assay on A498 renal was more than 100 µM throughout. Moreover, the TGI in the assay on IGROV1 ovarian, in the assay with NCI-H522 lung and with CCRF-CEM leukemia was more than 100 µM in each case.

Turning to `CC(NC(=O)c1ccccc1)C(=O)N(Cc1ccccc1)Cc1ccccc1` (stereo unspecified), the TGI in the assay on HOP-92 NSCLC was 68.7 µM; with SNB-19 CNS, more than 100 µM; in the assay on A549 NSCLC, more than 100 µM; in the assay on HOP-62 NSCLC it was 66.4 µM; with A498 renal it was 89.9 µM; with IGROV1 ovarian, more than 100 µM. Further, the figures for the TGI in the assay with NCI-H522 lung and with CCRF-CEM leukemia were 65.2 µM and 47.1 µM, respectively.

As to `O=[N+]([O-])c1ccccc1S(=O)c1ccccc1` (stereo unspecified), the TGI with HOP-92 NSCLC, with SNB-19 CNS, in the assay on A549 NSCLC, with HOP-62 NSCLC, in the assay on A498 renal and in the assay with IGROV1 ovarian was more than 100 µM each time. The TGI with NCI-H522 lung and in the assay with CCRF-CEM leukemia was more than 100 µM each time.

Regarding `O=C1CCC2(c3ccc(F)cc3)Nc3ccccc3N12` (stereo unspecified), the TGI in the assay on EKVX NSCLC, with HOP-92 NSCLC, in the assay on A549 NSCLC, with HOP-62 NSCLC, in the assay with A498 renal and with IGROV1 ovarian was more than 100 µM throughout. The TGI in the assay on NCI-H522 lung and with CCRF-CEM leukemia was more than 100 µM in each case.

For the origin of these results see PubChem BioAssay (NCI).
